Assay results published in US12564650B2, “Carbonic anhydrase IX-targeting radioactive diagnostic and therapeutic medicament and method for preparing same” (NORROY BIOSCIENCE CO., LTD., priority 2022, dated 2026).

Test system: 786-O tumor (human renal clear cell adenocarcinoma cells)
Assay: Competitive inhibition assay in 786-O mouse model
Type: in vivo, NOD-SCID mice
Conditions: cold medicament 40 times the mass of hot medicament, 30 minutes before; scan 1 hour
From the text: The experimental 786-O animal model was provided by Biaodu Baiao Biotechnology (Shanghai) Co., Ltd. The model was a 786-O tumor subcutaneous heterotopic transplant tumor model established based on NOD-SCID mice. This model was a mouse model constructed for human renal clear cell adenocarcinoma cells. Two animal models were randomly selected and injected with cold medicament NYM0005 through tail vein. The injection dose was 40 times the mass of the injected hot medicament (^68Ga-NYM0005). The order of administration was as follow: injecting the hot medicament ^68Ga-NYM0005 30 minutes after the administration of the cold medicament. After pre-anesthesia with an appropriate concentration of isoflurane/oxygen mixed gas prior to scanning, the animals were placed in a MicroPET/CT imaging cabin (SNPC-303 SuperNova, Pingsheng Medical Technology (Kunshan) Co., Ltd.), and anesthesia was maintained with isoflurane/air mixed gas. A MicroPET/CT scan was performed 1 hour after the administration of the hot medicament. The scanned images were obtained after reconstruction by means of the device software, and the scanned images were analyzed using PMOD software.

Question: Which “blocking of 68Ga-NYM005 uptake of the tumor by cold medicament” value does the source give for `NS(=O)(=O)c1nnc(NC(=O)CCCc2cn(CCCCC(=O)N[C@@H](CC(=O)O)C(=O)NCCCCNC(=O)CN3CCN(CC(=O)O)CCN(CC(=O)O)CC3)nn2)s1` [NYM005] here?
Answer: The value was “significantly block”.
